Values after ≈ are worked out from the molar mass of the structure shown.
Experiments:
A. fumigatus NRRL 163 = test: MIC, agar incorporation method; assay type: cell-based; details: Aspergillus fumigatus, NRRL163, NRRL 163; 32° C., 48-72 hours; read-out: Minimal Inhibitory Concentration
Method in brief: (§1)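 Two-fold compound dilutions (100 to 3.1 mcg/ml, sometimes to 0.125 mcg/ml) incorporated into Eugon agar, inoculated with a drop of ~1,000,000 cells/ml suspension, incubated at 32 °C. MIC is lowest concentration visibly inhibiting growth: bacteria at 24 h, dermatophytes and molds at 48-72 h.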

A. fumigatus NRRL 165 = test: MIC, agar incorporation method; assay type: cell-based; details: Aspergillus fumigatus, NRRL165, 32° C., 48-72 hours, read-out: Minimal Inhibitory Concentration
Method in brief: as §1

[1] = system: Aspergillus niger ATCC 16404; test: MIC, agar incorporation method; assay type: cell-based; details: ATCC16404, 32° C., 48-72 hours, read-out: Minimal Inhibitory Concentration
Method in brief: as §1

C. albicans NRRL Y-477 = test: MIC, agar incorporation method; assay type: cell-based; details: Candida albicans, NRRLY477, 32° C., 24 hours, read-out: Minimal Inhibitory Concentration
Method in brief: as §1

C. guillermondii VM 42 = test: MIC, agar incorporation method; assay type: cell-based; details: 32° C., 24 hours; read-out: Minimal Inhibitory Concentration
Method in brief: as §1

C. krusei VM 29B = test: MIC, agar incorporation method; assay type: cell-based; details: Pichia kudriavzevii, VM29B; 32° C., 24 hours; read-out: Minimal Inhibitory Concentration
Method in brief: as §1

C. tropicalis NRRL Y1410 = test: MIC, agar incorporation method; assay type: cell-based; details: Candida tropicalis, NRRLY1410; 32° C., 24 hours; read-out: Minimal Inhibitory Concentration
Method in brief: as §1

[2] = system: Candida albicans ATCC 10231; test: MIC, agar incorporation method; assay type: cell-based; details: ATCC10231, C. albicans ATCC 10231, 32° C., 24 hours, read-out: Minimal Inhibitory Concentration
Method in brief: as §1

[3] = system: Escherichia coli ATCC 8739; test: MIC, agar incorporation method; assay type: cell-based; details: ATCC8739, 32° C., 24 hours, read-out: Minimal Inhibitory Concentration
Method in brief: as §1

[4] = system: Proteus vulgaris NRRL B123; test: MIC, agar incorporation method; assay type: cell-based; details: NRRLB123, 32° C., 24 hours, read-out: Minimal Inhibitory Concentration
Method in brief: as §1

[5] = system: Pseudomonas aeruginosa ATCC 14502; test: MIC, agar incorporation method; assay type: cell-based; details: ATCC14502, 32° C., 24 hours, read-out: Minimal Inhibitory Concentration
Method in brief: as §1

[6] = system: Sarcina subflava ATCC 7468; test: MIC, agar incorporation method; assay type: cell-based; details: ATCC7468, 32° C., 24 hours, read-out: Minimal Inhibitory Concentration
Method in brief: as §1

[7] = system: Staphylococcus aureus ATCC 6538; test: MIC, agar incorporation method; assay type: cell-based; details: Staphylococcus aureus, ATCC6538; S. aureus ATCC 6538; 32° C., 24 hours; read-out: Minimal Inhibitory Concentration
Method in brief: as §1

[8] = system: Streptococcus faecalis ATCC 10541; test: MIC, agar incorporation method; assay type: cell-based; details: Enterococcus faecalis, ATCC10541; 32° C., 24 hours; read-out: Minimal Inhibitory Concentration
Method in brief: as §1

T. mentagrophytes CDC = test: MIC, agar incorporation method; assay type: cell-based; details: Trichophyton mentagrophytes, 32° C., 48-72 hours, read-out: Minimal Inhibitory Concentration
Method in brief: as §1

T. mentagrophytes TM-2 = test: MIC, agar incorporation method; assay type: cell-based; details: Trichophyton mentagrophytes, TM2, 32° C., 48-72 hours, read-out: Minimal Inhibitory Concentration
Method in brief: as §1

T. rubrum ATCC 10218 = test: MIC, agar incorporation method; assay type: cell-based; details: Trichophyton rubrum, ATCC10218; 32° C., 48-72 hours; read-out: Minimal Inhibitory Concentration
Method in brief: as §1

T. tonsurans ATCC 10217 = test: MIC, agar incorporation method; assay type: cell-based; details: Trichophyton tonsurans, ATCC10217; 32° C., 48-72 hours; read-out: Minimal Inhibitory Concentration
Method in brief: as §1

[9] = system: Trichophyton mentagrophytes ATCC 4807; test: MIC, agar incorporation method; assay type: cell-based; details: ATCC4807, 32° C., 48-72 hours, read-out: Minimal Inhibitory Concentration
Method in brief: as §1

S. aureus NRRL B2747 [10] = test: MIC, agar incorporation method; assay type: cell-based, Staphylococcus aureus; details: Staphylococcus aureus, NRRLB2747, 32° C., 24 hours, read-out: Minimal Inhibitory Concentration
Method in brief: as §1

[11] = system: Bacteriodides fragilis ATCC 8482; test: MIC, agar incorporation method, anaerobic; assay type: cell-based; details: 48 hours at 35° C., GasPak Anaerobic Jar, read-out: Minimal Inhibitory Concentration
Method in brief: (§2)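 Two-fold compound dilutions (100 to 3.1, sometimes to 0.125 mcg/ml) in DMF were incorporated into Eugon agar. Plates were spot-inoculated with about 1,000,000 cells/ml suspensions, with anaerobes pre-grown in thioglycollate medium. Anaerobes were incubated 48 h at 35 °C in a GasPak jar, and MIC was the lowest concentration visibly inhibiting growth.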

[12] = system: Clostridium acetobutylicum ATCC 824; test: MIC, agar incorporation method, anaerobic; assay type: cell-based; details: ATCC824, 48 h, 48 hours at 35° C., GasPak Anaerobic Jar, read-out: Minimal Inhibitory Concentration
Method in brief: as §2

[13] = system: Clostridium sporogenes ATCC 11437; test: MIC, agar incorporation method, anaerobic; assay type: cell-based; details: ATCC11437, 48 hours at 35° C., GasPak Anaerobic Jar, read-out: Minimal Inhibitory Concentration
Method in brief: as §2

[14] = system: Propionobacterium acnes ATCC 6919; test: MIC, agar incorporation method, anaerobic; assay type: cell-based; details: 48 hours at 35° C., GasPak Anaerobic Jar, read-out: Minimal Inhibitory Concentration
Method in brief: as §2

S. aureus NRRL B2747 [15] = test: MIC, agar incorporation method, anaerobic; assay type: cell-based; details: Staphylococcus aureus, NRRLB2747, 48 hours at 35° C., GasPak Anaerobic Jar, read-out: Minimal Inhibitory Concentration
Method in brief: as §2

Work on `C=C1C(=O)c2ccccc2OC1(c1ccccc1)c1ccccc1` [Ex. 20, 3-methylene-2-phenyl flavanone] yielded an MIC (A. fumigatus NRRL 163) of over 100 µg/mL, an MIC (A. fumigatus NRRL 165) of over 100 µg/mL and an MIC [1] of over 100 µg/mL. For the same compound, the MIC (C. albicans NRRL Y-477) was over 100 µg/mL, the MIC (C. guillermondii VM 42) was over 100 µg/mL and the MIC (C. krusei VM 29B) was over 100 µg/mL. The MIC (C. tropicalis NRRL Y1410) was over 100 µg/mL, the MIC [2] was over 100 µg/mL and the MIC [3] was over 100 µg/mL. It also gave an MIC [4] of over 100 µg/mL, an MIC [5] of over 100 µg/mL and an MIC [6] of 1 µg/mL (≈ 3.2 µM). It also gave an MIC [7] of 0.5 µg/mL (≈ 1.6 µM), an MIC [8] of 0.78 to 1 µg/mL (≈ 2.5 to 3.2 µM) and an MIC (T. mentagrophytes CDC) of over 100 µg/mL. It also gave an MIC (T. mentagrophytes TM-2) of over 100 µg/mL, an MIC (T. rubrum ATCC 10218) of over 100 µg/mL and an MIC (T. tonsurans ATCC 10217) of over 100 µg/mL. It also gave an MIC [9] of over 100 µg/mL, an MIC (S. aureus NRRL B2747 [10]) of 0.25 to 0.5 µg/mL (≈ 0.8 to 1.6 µM) and an MIC [11] of 0.125 µg/mL (≈ 0.4 µM). The MIC [12] was 1 µg/mL (≈ 3.2 µM), the MIC [13] was 0.5 µg/mL (≈ 1.6 µM) and the MIC [14] was 0.78 to 3.1 µg/mL (≈ 2.5 to 9.92 µM). The MIC (S. aureus NRRL B2747 [15]) was 0.25 to 1 µg/mL (≈ 0.8 to 3.2 µM).
